Source: US9221814B2, “Heterocyclic guanidine F1F0-atpase inhibitors and therapeutic uses thereof” (Lycera Corporation, priority 2012, dated 2015)
Like-named read-outs stand apart in the source and are kept apart here.

Experiments:
[1] = tested on: Ramos cells; assay: Cytotoxicity in Ramos cells; assay type: cell-based; conditions: detection limit EC50=16 μM, read-out: Ramos Cell EC50
Experimental: (§1) Exemplary compounds described in above Examples were tested for activity against F1F0-ATPase by measuring the ability of the compounds to inhibit ATP synthesis. In addition, the compounds were assessed for cytotoxicity in Ramos cells. Inhibition of F1F0-ATPase activity in synthesizing ATP and cytotoxicity in Ramos cells were measured according to the procedures described in K. M. Johnson et al. Chemistry & Biology 2005, 12, 485-496.

[2] = target: T1, F1F0-ATPase (Bos taurus, UniProt P13621); assay: Inhibition of F1F0-ATPase activity in synthesizing ATP (ATP synthesis inhibition); assay type: biochemical; conditions: detection limit IC50=16 μM, read-out: ATP Syn IC50
T1 construct: from tissue
Experimental: as §1

Row | SMILES | IC50 [2] [µM] | EC50 [1] [µM] | EC50 ([1]; Homo sapiens) [µM]
1 | Cc1cc(C(=O)/N=C(\Nc2ccc(C(F)(F)F)nc2)Nc2cccc(C(F)(F)F)c2)on1 [Compound A-233] | < 5 | – | < 5
2 | COc1ccc(-c2cc(N/C(=N\C(=O)c3cn(C)nc3C(F)(F)F)Nc3cc(F)cc(Cl)c3)n[nH]2)cc1F [Compound A-131] | < 5 | > 16 | –
3 | Cn1cc(C(=O)/N=C(/Nc2cc(-c3cc(F)cc(F)c3)n[nH]2)NC2CCCC2)c(C(F)(F)F)n1 [Compound A-27] | < 5 | < 5 | –
4 | Cc1oncc1C(=O)/N=C(/NCc1ccc(F)cc1Cl)Nc1cc(-c2ccc(Cl)cc2)n[nH]1 [Compound A-85] | 5 to 16 | 5 to 16 | –
5 | Cc1cc(C(=O)/N=C(/NCc2ccc(F)cc2Cl)Nc2cc(-c3ccc(F)cc3)n[nH]2)n(C)n1 [Compound A-86] | < 5 | 5 to 16 | –
6 | CSc1ccc(N/C(=N\C(=O)c2cn(C)nc2C(F)(F)F)Nc2cc(-c3ccc(O)cc3F)n[nH]2)cc1 [Compound A-8] | 5 to 16 | < 5 | –
7 | CCC(C)N/C(=N/C(=O)c1cc(C)oc1C)Nc1cc(-c2ccc(F)cc2)n[nH]1 (stereo not shown) [Compound A-197] | 5 to 16 | 5 to 16 | –
8 | Cc1oncc1C(=O)/N=C(\Nc1cc(-c2cc(F)cc(Cl)c2)n[nH]1)NC1CCC1 [Compound A-102] | < 5 | < 5 | –
9 | Cn1nc(C(C)(C)C)cc1C(=O)N/C(=N/c1cccc(O)n1)Nc1cc(F)cc(Cl)c1 [Compound A-235] | < 5 | – | < 5
10 | Cn1cc(C(=O)/N=C(\Nc2cc(-c3ccc(O)c(F)c3)[nH]n2)NC2CCCC2)c(C(F)(F)F)n1 [Compound A-134] | 5 to 16 | > 16 | –
11 | Cc1oncc1C(=O)N=C(Nc1cc(-c2ccc(F)cc2)n[nH]1)NC1CCCC1 [Compound A-124] | > 16 | – | > 16
12 | Cc1oncc1C(=O)/N=C(/NCC(C)C)Nc1cc(-c2ccc(F)cc2)[nH]n1 [Compound A-123] | > 16 | > 16 | –
13 | CCOCCCN/C(=N\C(=O)c1cnoc1C)Nc1cc(-c2cc(F)cc(F)c2)n[nH]1 [Compound A-1] | > 16 | > 16 | –
14 | Cc1ccccc1CN/C(=N/C(=O)c1cc(C(C)(C)C)nn1C)Nc1cc(-c2ccc(F)cc2)n[nH]1 [Compound A-44] | < 5 | < 5 | –
15 | CCOC(=O)NC1CCC(N/C(=N\C(=O)c2cc(C)oc2C(F)(F)F)Nc2ccccc2C(F)(F)F)CC1 (stereo not shown) [Compound A-214] | < 5 | – | > 16
16 | Cc1cc(C(=O)N=C(Nc2cc(-c3ccc(Cl)cc3)n[nH]2)NC(C)C)n(C)n1 [Compound A-64] | < 5 | – | 5 to 16
17 | COc1ccc(-c2cc(N/C(=N\C(=O)c3cn(C)nc3C(F)(F)F)Nc3ccc(F)cc3Cl)[nH]n2)cc1F [Compound A-147] | < 5 | > 16 | –
18 | CCOCCCN/C(=N\C(=O)c1cn(C)nc1C(F)(F)F)Nc1cc(-c2cc(F)cc(F)c2)n[nH]1 [Compound A-29] | < 5 | < 5 | –
19 | CC(C)CNC(=NC(=O)c1cn(C)nc1C(F)(F)F)Nc1cc(-c2cc(O)ccc2Cl)n[nH]1 [Compound A-182] | < 5 | – | 5 to 16
20 | Cc1oncc1C(=O)N=C(Nc1cc(-c2ccc(Cl)cc2)n[nH]1)NC(C)C [Compound A-70] | > 16 | – | > 16
21 | Cc1ccccc1N/C(=N/C(=O)c1cn(C)nc1C(F)(F)F)Nc1cc(-c2ccc(O)c(F)c2)n[nH]1 [Compound A-185] | < 5 | < 5 | –
22 | Cc1cc(C(=O)/N=C(\Nc2cc(-c3cc(F)cc(F)c3)[nH]n2)NC(C)(C)C)c(C(F)(F)F)o1 [Compound A-114] | 5 to 16 | 5 to 16 | –
23 | COC[C@H](C)N/C(=N\C(=O)c1cn(C)nc1C(F)(F)F)Nc1cc(-c2cc(F)cc(F)c2)n[nH]1 [Compound A-32] | 5 to 16 | 5 to 16 | –
24 | Cn1cc(C(=O)/N=C(/Nc2ccc(C(C)(C)C)cc2)Nc2cc(-c3ccc(O)c(F)c3)n[nH]2)c(C(F)(F)F)n1 [Compound A-165] | < 5 | < 5 | –
25 | Cc1ccc(-c2cc(N/C(=N\C(=O)c3cnoc3C)NC3CCCC3)n[nH]2)cc1F [Compound A-91] | < 5 | < 5 | –
26 | COC[C@H](C)N/C(=N/C(=O)c1cc(C)nn1C)Nc1cc(-c2cc(F)cc(F)c2)[nH]n1 [Compound A-84] | 5 to 16 | > 16 | –
27 | Cc1nnsc1C(=O)/N=C(\Nc1cc(-c2ccc(F)cc2)n[nH]1)NC(C)(C)C [Compound A-47] | 5 to 16 | < 5 | –
28 | Cc1ccc(-c2cc(N/C(=N\C(=O)c3cnoc3C)NC3(C)CCCC3)[nH]n2)cc1F [Compound A-92] | < 5 | < 5 | –
29 | CCC(C)N/C(=N/C(=O)c1nc(C)oc1C)Nc1cc(-c2ccc(F)cc2)n[nH]1 (stereo not shown) [Compound A-196] | 5 to 16 | < 5 | –
30 | COc1ccc(F)c(-c2cc(N/C(=N\C(=O)c3cn(C)nc3C(F)(F)F)NC(C)(C)C)n[nH]2)c1 [Compound A-145] | 5 to 16 | 5 to 16 | –

Now from value to compound, other results behind:

Row | IC50 [2] [µM] | SMILES | EC50 [1] [µM] | EC50 ([1]; Homo sapiens) [µM]
31 | 5 to 16 | COc1ccc(-c2cc(N/C(=N\C(=O)c3cn(C)nc3C(F)(F)F)NC(C)(C)C)n[nH]2)cc1F [Compound A-128] | < 5 | –
32 | < 5 | CC(C)(C)N/C(=N/C(=O)c1ccc(Cl)s1)Nc1cc(C(F)(F)F)n[nH]1 [Compound A-211] | < 5 | –
33 | < 5 | Cc1cc(C(=O)/N=C(/NCC(C)C)Nc2cc(-c3cc(F)cc(F)c3)n[nH]2)n(C)n1 [Compound A-83] | 5 to 16 | –
34 | < 5 | Cc1cc(C(=O)/N=C(\Nc2cc(-c3ccc(Cl)cc3)n[nH]2)NC(C)(C)C)n(C)n1 [Compound A-65] | 5 to 16 | –
35 | 5 to 16 | COc1ccc(-c2cc(N/C(=N\C(=O)c3cn(C)nc3C(F)(F)F)NC(C)C)n[nH]2)cc1F [Compound A-146] | < 5 | –
36 | 5 to 16 | Cn1cc(C(=O)/N=C(/Nc2cc(-c3ccc(O)cc3F)n[nH]2)Nc2ccccc2F)c(C(F)(F)F)n1 [Compound 1, N-(((3-(2-Fluoro-4-hydroxyphenyl)-1H-pyrazol-5-yl)amino)((2-fluorophenyl)amino)methylene)-1-methyl-3-(trifluoromethyl)-1H-pyrazole-4-carboxamide] | – | < 5
37 | < 5 | CCC(C)N/C(=N/C(=O)c1cc(C)oc1C(F)(F)F)Nc1cc(-c2ccc(F)cc2)n[nH]1 (stereo not shown) [Compound A-204] | < 5 | –
38 | < 5 | Cn1cc(C(=O)/N=C(/Nc2cc(-c3cc(F)cc(F)c3)n[nH]2)NC2CCC2)c(C(F)(F)F)n1 [Compound A-28] | < 5 | –
39 | < 5 | CCOC(=O)NC1CCC(N/C(=N\C(=O)c2cc(C)oc2C(F)(F)F)Nc2ccccc2OC)CC1 (stereo not shown) [Compound A-213] | – | > 16
40 | > 16 | Cc1oncc1C(=O)/N=C(\Nc1cc(-c2ccc(F)cc2)[nH]n1)NC1CCC1 [Compound A-125] | > 16 | –
41 | < 5 | COC[C@H](C)N/C(=N/C(=O)c1cc(C(C)(C)C)nn1C)Nc1cc(-c2ccc(F)cc2)n[nH]1 [Compound A-50] | < 5 | –
42 | < 5 | Cc1cc(C(=O)/N=C(/Nc2cc(F)cc(Cl)c2)Nc2c(C)c(C(F)(F)F)nn2CCO)on1 [Compound A-226] | – | 5 to 16
43 | > 16 | Cn1cc(C(=O)N=C(Nc2cc(-c3ccc(O)cc3F)n[nH]2)NC2CCCC2)c(C(F)(F)F)n1 [Compound A-137] | – | > 16
44 | 5 to 16 | Cn1cc(C(=O)/N=C(\Nc2cc(-c3ccc(O)c(F)c3)n[nH]2)Nc2ccc(F)c(O)c2F)c(C(F)(F)F)n1 [Compound 5, N-(((2,4-Difluoro-3-hydroxyphenyl)amino)((3-(3-fluoro-4-hydroxyphenyl)-1H-pyrazol-5-yl)amino)methylene)-1-methyl-3-(trifluoromethyl)-1H-pyrazole-4-carboxamide] | – | 5 to 16
45 | > 16 | Cc1oncc1C(=O)/N=C(\Nc1cc(-c2ccc(Cl)cc2)[nH]n1)NC1CCCC1 [Compound A-89] | > 16 | –
46 | < 5 | Cc1oncc1C(=O)/N=C(\Nc1cc(-c2cc(F)cc(F)c2)n[nH]1)NC1CCCC1 [Compound A-78] | > 16 | –
47 | 5 to 16 | COCC(C)NC(=NC(=O)c1cnoc1C)Nc1cc(-c2ccc(Cl)cc2)n[nH]1 (stereo not shown) [Compound A-75] | – | > 16
48 | < 5 | Cc1cc(Cl)ccc1N/C(=N/C(=O)c1cn(C)nc1C(F)(F)F)Nc1cc(-c2ccc(O)c(F)c2)n[nH]1 [Compound A-187] | < 5 | –
49 | > 16 | Cc1nnsc1C(=O)/N=C(\Nc1cc(-c2ccc(F)cc2)[nH]n1)NC1CCCC1 [Compound A-122] | > 16 | –
50 | < 5 | Cc1oncc1C(=O)/N=C(\Nc1cc(-c2cc(F)cc(F)c2)n[nH]1)NC1(C)CCCC1 [Compound A-95] | < 5 | –
51 | < 5 | CCn1ccc(C(=O)/N=C(\Nc2cc(-c3ccc(F)cc3)n[nH]2)NC(C)(C)C)n1 [Compound A-60] | 5 to 16 | –
52 | < 5 | COc1ccc(-c2cc(NC(=NC(=O)c3cn(C)nc3C(F)(F)F)Nc3ccc(F)c(Cl)c3)[nH]n2)cc1F [Compound A-155] | – | > 16
53 | > 16 | CCn1ccc(C(=O)/N=C(\Nc2cc(-c3ccc(F)cc3)n[nH]2)NC(C)C)n1 [Compound A-62] | > 16 | –
54 | 5 to 16 | Cc1cc(C(=O)/N=C(\Nc2cc(-c3ccc(F)cc3)n[nH]2)NC(C)(C)C)on1 [Compound A-40] | > 16 | –
55 | < 5 | Cn1nc(C(C)(C)C)cc1C(=O)/N=C(\Nc1cc(-c2ccc(Cl)cc2)n[nH]1)NC1CCCC1 [Compound A-74] | < 5 | –
56 | < 5 | Cc1oncc1C(=O)/N=C(\Nc1cc(-c2ccc(Cl)cc2)n[nH]1)NC(C)(C)C [Compound A-68] | < 5 | –
